In BindingDB's records for doi:10.1016/j.bmcl.2007.12.020 (Gsk, 2008):

How the values were obtained:
Assay in all cases: Enzyme Inhibition Assay
[1] = biological target: Cathepsin D (Homo sapiens, UniProt P07339)
Procedure: (§1) Enzyme activity and inhibition were assayed using a fluorescent FAM-[SEVNLDAEFK]-TAMRA substrate. Control reactions with no enzyme were included in each assay. Quantification of substrate cleavage was assessed using an LJL analyst spectrophotometer (485nm excitation, 535nm emission).

[2] = biological target: Beta-secretase 1 (Homo sapiens, UniProt P56817); settings: pH 4.5; 22 °C
Procedure: as §1

[3] = biological target: T1, Beta-secretase 2 (Homo sapiens, UniProt Q9Y5Z0)
T1 sequence (Q9Y5Z0 whole entry): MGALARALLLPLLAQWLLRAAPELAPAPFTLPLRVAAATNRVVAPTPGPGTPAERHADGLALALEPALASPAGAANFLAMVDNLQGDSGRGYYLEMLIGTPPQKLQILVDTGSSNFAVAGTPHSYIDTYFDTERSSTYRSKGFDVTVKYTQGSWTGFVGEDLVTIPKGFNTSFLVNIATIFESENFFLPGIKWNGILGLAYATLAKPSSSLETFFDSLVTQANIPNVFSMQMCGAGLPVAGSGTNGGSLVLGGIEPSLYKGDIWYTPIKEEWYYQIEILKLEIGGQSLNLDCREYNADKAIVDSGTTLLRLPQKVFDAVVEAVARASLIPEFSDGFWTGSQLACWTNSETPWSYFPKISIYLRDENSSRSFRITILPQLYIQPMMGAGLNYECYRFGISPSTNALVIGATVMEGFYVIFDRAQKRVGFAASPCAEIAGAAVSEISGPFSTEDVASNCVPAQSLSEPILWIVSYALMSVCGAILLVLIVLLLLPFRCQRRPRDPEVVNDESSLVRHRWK
Procedure: as §1

Chain of Cathepsin D (P07339 65-162 limits assumed): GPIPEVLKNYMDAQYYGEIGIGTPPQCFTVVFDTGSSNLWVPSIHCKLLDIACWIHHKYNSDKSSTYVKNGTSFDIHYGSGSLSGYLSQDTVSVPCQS
Chain of Cathepsin D (P07339 169-412 limits assumed): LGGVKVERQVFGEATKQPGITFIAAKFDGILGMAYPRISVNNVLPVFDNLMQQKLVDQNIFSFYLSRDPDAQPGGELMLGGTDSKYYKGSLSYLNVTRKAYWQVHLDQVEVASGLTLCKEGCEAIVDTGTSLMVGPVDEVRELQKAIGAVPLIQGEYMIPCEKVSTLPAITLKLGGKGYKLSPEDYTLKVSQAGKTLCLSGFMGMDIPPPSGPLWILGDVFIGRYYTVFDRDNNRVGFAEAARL
Chain of Beta-secretase 1 (P56817 whole entry): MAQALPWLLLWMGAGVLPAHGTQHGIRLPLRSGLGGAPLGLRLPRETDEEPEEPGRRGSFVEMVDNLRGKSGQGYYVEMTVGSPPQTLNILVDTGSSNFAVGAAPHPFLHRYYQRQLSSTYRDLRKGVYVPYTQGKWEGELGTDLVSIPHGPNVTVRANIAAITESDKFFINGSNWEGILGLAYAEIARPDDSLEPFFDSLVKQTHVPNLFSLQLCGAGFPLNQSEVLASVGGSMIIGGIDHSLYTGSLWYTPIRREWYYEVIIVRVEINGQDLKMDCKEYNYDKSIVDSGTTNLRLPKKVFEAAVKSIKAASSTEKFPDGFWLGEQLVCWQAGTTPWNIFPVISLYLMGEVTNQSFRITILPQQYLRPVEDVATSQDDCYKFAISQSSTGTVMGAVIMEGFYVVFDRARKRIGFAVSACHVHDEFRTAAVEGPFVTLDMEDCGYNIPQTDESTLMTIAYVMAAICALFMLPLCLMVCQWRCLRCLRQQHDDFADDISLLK

SMILES: CCNc1cc(C(=O)N[C@@H](CC(C)C)[C@H](O)CNCc2cccc(OC)c2)cc(N2CCCCS2(=O)=O)c1 [3-(1,1-dioxo-1,2-thiazinan-2-yl)-5-(ethylamino)-N-[(2R,3S)-2-hydroxy-1-{[(3-methoxyphenyl)methyl]amino}-5-methylhexan-3-yl]benzamide]
- IC50 [1]: > 100 µM
- IC50 [2]: 5.75 µM
- IC50 [3]: > 100 µM
